The values below come from US8877949B2, “Furo[3,2-g]chromene compounds and uses thereof” (Shenyang Pharmaceutical University, priority 2010, dated 2014).

Data set [1] relates to Osteosarcoma Cells U2OS-EGFP-4A12G. Put plainly: Effect on the proliferation of osteosarcoma cells U2OS-EGFP-4A12G (MTT). The class given is cell-based. The settings on record: n = 3. The method, then:
Cells in the logarithmic growth phase were digested with trypsin, counted with trypan blue, and prepared into a cellular suspension with a density of 1×10^4 cells/mL. The suspension was seeded in a 96-well plate, 200 μL/well, about 2×10^3 cells/well, and pre-cultured for 24 h. […] A concentration of 0 mg/mL was used as a negative control group. After subsequent cultivatation for 0 h, 12 h, 24 h or 48 h, 20 μL MTT solution (5 mg/mL) was added to each well. The cultivation was terminated after another 4 h incubation. The supernatant in each well was sucked out carefully, and 150 μL of dimethyl sulfoxide (DMSO) was added to each well. The plate was shaken for 10 min, so that formazan was dissolved thoroughly. The absorption value (A value) of each well was measured using an enzyme linked immunosorbent detector, at a selected wavelength of 490 nm. The measurement was repeated for 5 times.

Data set [2] deals with Ovarian Cancer Cells SKOV3. In words: Effect on the proliferation of ovarian cancer cells SKOV3 (MTT). The class given is cell-based. How it is done:
Cells in the logarithmic growth phase were digested with trypsin, added to a 96-well plate, in a density of 6×10^3 cells/well, and cultured in a 37° C., 5% CO2 incubator. The next day, the plated was transferred to and kept in a 4° C. incubator for 1 h after the adherence of most cells, so as to achieve synchronized growth of the cells. The supernatant was sucked out, and a RPMI 1640 medium containing 10% fetal calf serum (FCS) was added, 200 μL/well. The cells were grouped according to the design of the experiment. The injectable solution of the compound prepared with sterile physiological saline was added to the 96 wells, 200 μL/well, so that the concentrate of the medicament in each well were 1 mg/mL, 2 mg/mL and 5 mg/mL, respectively. A concentration of 0 mg/mL was used as a negative control group. After subsequent cultivation for 24, 48, or 72 h, 20 μL MTT solution (with a concentration of 5 mg/mL) was added to each well, respectively. The plate was shaken gently, returned to the incubator and incubated for another 4 h. Then the supernatant was sucked out completely, and 200 μL of dimethyl sulfoxide was added to each well. The plate was shaken for 5-10 min on a shaker. The absorption (A=580) of each well at a wavelength of 580 nm was measured using a microplate reader. The A=580 value was proportional to the number of live cells.

One may read the melting point as the temperature, or range, at which the solid turns liquid. `COc1ccc(-c2c(C(=O)c3ccccc3)oc3cc4c(cc23)CCCO4)cc1` [Example 1, 2-benzoyl-3-(4-methoxyphenyl)-6,7-dihydrogen-5H-furo[3,2-g]chromene]: the melting point fell in the range of 106.3 to 108.5 °C. On the same count and under the same terms, then `COc1ccc(C(=O)c2oc3cc4c(cc3c2-c2ccccc2)CCCO4)cc1` [Example 2, 2-(4-methoxybenzoyl)-3-phenyl-6,7-dihydrogen-5H-furo[3,2-g]chromene], with 130.3 to 132.5 °C.

A word on the IC50: it is the concentration that gives 50% inhibition. A lower IC50 goes with higher potency. Turning to `COc1ccc(-c2c(C(=O)c3ccc(Cl)cc3)oc3cc4c(cc23)CCCO4)cc1` [Example 3, 2-(4-chlorobenzoyl)-3-(4-methoxyphenyl)-6,7-dihydrogen-5H-furo[3,2-g]chromene], the 50% inhibitory concentration (IC50) in data set [1] was 21.7 µM. This counts as double-digit micromolar. Regarding `O=C(c1ccccc1)c1oc2cc3c(cc2c1-c1ccc(O)cc1)CCCO3` [Example 7, 2-benzoyl-3-(4-hydroxyphenyl)-6,7-dihydrogen-5H-furo[3,2-g]chromene], the IC50 in data set [1] is 13.7 µM; in data set [2] (Homo sapiens, SK-OV-3, n = 3), 0.8 µM. Take `CCN(CC)CCOc1ccc(-c2c(C(=O)c3ccccc3)oc3cc4c(cc23)CCCO4)cc1` [Example 21, 2-benzoyl-3-[4-(diethylaminoethoxy)phenyl]-6,7-dihydrogen-5H-furo[3,2-g]chromene]: the IC50 in data set [1] was 16.5 µM; in data set [2] (n = 3), 28.2 µM.

Consider `O=C(c1ccc(Cl)cc1)c1oc2cc3c(cc2c1-c1ccc(OCCN2CCCCC2)cc1)CCCO3` [Example 30, 2-(4-chlorobenzoyl)-3-[4-(piperidinoethoxy)phenyl]-6,7-dihydrogen-5H-furo[3,2-g]chromene], for which the results for the IC50 in data set [1] and in data set [2] (n = 3) were 26.3 µM and 72.2 µM, respectively. For `CCN(CC)CCOc1ccc(-c2c(C(=O)c3ccc(Cl)cc3)oc3cc4c(cc23)CCCO4)cc1` [Example 31, 2-(4-chlorobenzoyl)-3-[4-(diethylaminoethoxy)phenyl]-6,7-dihydrogen-5H-furo[3,2-g]chromene], the 50% inhibitory concentration (IC50) was 36.1 µM in data set [1] and 8.5 µM in data set [2] (Homo sapiens, SK-OV-3, n = 3). Take `CCN(CC)CCOc1ccc(-c2c(C(=O)c3ccc(C)cc3)oc3cc4c(cc23)CCCO4)cc1` [Example 35, 2-(4-methylbenzoyl)-3-[4-(diethylaminoethoxy)phenyl]-6,7-dihydrogen-5H-furo[3,2-g]chromene]: the IC50 was 5.8 µM in data set [1] and 29.7 µM in data set [2] (Homo sapiens, SK-OV-3, n = 3). For `Cc1ccc(C(=O)c2oc3cc4c(cc3c2-c2ccc(OCCN(C)C)cc2)CCCO4)cc1` [Example 36, 2-(4-methylbenzoyl)-3-[4-(dimethylaminoethoxy)phenyl]-6,7-dihydrogen-5H-furo[3,2-g]chromene] the same measures were 7.7 µM and 10.3 µM.

For the molecule `O=C(c1ccc(Br)cc1)c1oc2cc3c(cc2c1-c1ccc(OCCN2CCOCC2)cc1)CCCO3` [Example 41, 2-(4-bromobenzoyl)-3-[4-(morpholinoethoxy)phenyl]-6,7-dihydrogen-5H-furo[3,2-g]chromene], the concentration for half-maximal inhibition (IC50) in data set [1] was found to be 5 µM; in data set [2] (Homo sapiens, SK-OV-3, n = 3), 42.5 µM. For `O=C(c1ccc(Br)cc1)c1oc2cc3c(cc2c1-c1ccc(OCCN2CCCCC2)cc1)CCCO3` [Example 42, 2-(4-bromobenzoyl)-3-[4-(piperidinoethoxy)phenyl]-6,7-dihydrogen-5H-furo[3,2-g]chromene] the same measures were 13.3 µM and 32.8 µM. For `CN(C)CCOc1ccc(-c2c(C(=O)c3ccc(Br)cc3)oc3cc4c(cc23)CCCO4)cc1` [Example 44, 2-(4-bromobenzoyl)-3-[4-(dimethylaminoethoxy)phenyl]-6,7-dihydrogen-5H-furo[3,2-g]chromene] the same measures were 15.6 µM and 19 µM. For `COc1ccc(-c2c(C(=O)c3ccc(OCCN4CCCCC4)cc3)oc3cc4c(cc23)CCCO4)cc1` [Example 48, 2-[4-(piperidinoethoxy)benzoyl]-3-(4-methoxyphenyl)-6,7-dihydrogen-5H-furo[3,2-g]chromene], the half-inhibitory concentration (IC50) was 5.1 µM in data set [1] and 14.5 µM in data set [2] (Homo sapiens, SK-OV-3, n = 3).

In the case of `CCN(CC)CCOc1ccc(C(=O)c2oc3cc4c(cc3c2-c2ccc(OC)cc2)CCCO4)cc1` [Example 50, 2-[4-(diethylaminoethoxy)benzoyl]-3-(4-methoxyphenyl)-6,7-dihydrogen-5H-furo[3,2-g]chromene], the IC50 stood at 5.5 µM in data set [1] and 14.5 µM in data set [2] (Homo sapiens, SK-OV-3, n = 3). As for `O=C(c1ccc(OCCN2CCCCC2)cc1)c1oc2cc3c(cc2c1-c1ccc(O)cc1)CCCO3` [Example 55, 2-[4-(piperidinoethoxy)benzoyl]-3-(4-hydroxyphenyl)-6,7-dihydrogen-5H-furo[3,2-g]chromene], the results for the IC50 in data set [1] and in data set [2] (n = 3) were 10.8 µM and 13.6 µM, respectively.
